Consider one compound from patent US20240065983A1, “COMPOSITION AND METHOD FOR TREATING COVID-19” (University of South Florida, priority 2021, published 2024).

Test [1] relates to SARS CoV2 variants (WA, UK B.1.1.7, SA B.1.351). The format is cell-based, SARS-CoV-2.
Test [2] concerns SARS-CoV-2 delta. The test is classed as cell-based.

Take `CC(O)c1ccc(CCOc2ccc(CC3SC(=O)NC3=O)cc2)nc1` (stereo not drawn) [LG, leriglitazone]: the “expression of CoV2-N gene and S genes” value in test [1] is given as “significantly inhibited”. Also, the “expression of inflammatory genes TNFα, IL-6, IL1β” value in test [1] (LG 20 uM, all CoV2 strains) is “down-regulated at the transcript level”. Also, the “expression of N and inflammatory gene transcripts” value in test [2] is “decreased expression of N and several inflammatory gene transcripts”.
